In patent US4550186A, “Binuclear copper (II) carboxylates formed from amine-carboxyboranes” (Duke University, priority 1983, dated 1985):

Key:
[1] = molecular target: T1, ribosomal ribonucleic acid polymerase (Mus musculus, UniProt O35134+P70700); assay: In vivo ribosomal ribonucleic acid polymerase activity
T1 construct: enzymes isolated from nuclei; endogenous in cells; host or cells: Ehrlich ascites tumor cell nuclei, ammonium sulfate fraction
Description: (§1) CF1 male mice (~30 g) were implanted with 2×10^6 Ehrlich ascites tumor cells, intraperitoneally on Day 0. Compound I was suspended by homogenation in 0.05% polysorbate.80-water and administered intraperitoneally at 10 and 20 mg/kg for 9 days to determine its effectiveness for inhibition of tumor growth. Mice were sacrificed on Day 10, and the ascites fluid was collected from the peritoneal cavity. The volume and ascrit (packed cell volume) were determined for each animal and the percent inhibition of tumor growth was calculated. For the metabolic studies, mice were treated on Days 8 and 9 with 10 mg/kg of Compound I, intraperitoneally. The animal was sacrificed on Day 10 and the ascites fluid harvested. The in vitro metabolic studies were performed at 0.25, 0.50 and 1 mmol final concentration of Compound I.
In vitro and in vivo nuclear deoxyribonucleic acid polymerase activity was determined on isolated Ehrlich ascites cell nuclei. The incubation was that described by Sawada et al [Can. Res., 34, 3341 (1974)] except that [methyl-^3 H] deoxythymidine triphosphate (82.4 Ci/mmol) was used. The acid insoluble nucleic acid was collected on GF/F filters and counted. Nuclear ribonucleic acid polymerase activities were determined on enzymes isolated from nuclei. […] The acid insoluble ribonucleic acid was collected on nitrocellulose filters and counted.

[2] = test system: protein synthesis of Ehrlich ascites cells; assay: In vivo leucine incorporation into protein; design: species or system mouse
Description: as §1, with “The in vitro metabolic studies were performed at 0.25, 0.50 and 1 mmol final concentration of Compound I.” left out
For in vivo studies, incorporation of thymidine into deoxyribonucleic acid was determined by the method of Chae et al [Proc. Am. […] The deoxyribonucleic acid was isolated and the tritium content was determined in a toluene based scintillation fluid. The deoxyribonucleic acid concentration was determined by the diphenylamine reaction using calf thymus deoxyribonucleic acid as a standard. Uridine incorporation into ribonucleic acid was determined using 10 μCi of 5,6-^3 H-uridine (22.4 Ci/mmol). […] Leucine incorporation into protein was determined by the method of Sartorelli [Biochem. Biophys. […] Protein content was determined by the Lowry procedure using bovine serum albumin as a standard.

[3] = test system: Phosphatidate Phosphohydrolase; assay: In vitro liver enzyme study: phosphatidate phosphohydrolase; assay type: biochemical, mouse; details: in vitro CF1 liver, 30 min
Description: In vitro enzymatic studies were determined using 10% homogenates of CF1 male mouse liver with 50-200 μM of test drugs. In vivo enzymatic studies were determined using 10% homogenates of liver from CF1 male mice obtained after administering the agents for 16 days at a dose ranging from 2.5-20 mg/kg/day intraperitoneally. The liver homogenates for both in vitro and in vivo studies were prepared in 0.25M sucrose and 0.001M (ethylenedinitrilo)tetraacetic acid. Acetyl coenzyme A synthetase and adenosine triphosphate dependent citrate lyase activities were determined spectrophotometrically at 540 nm as the hydroxylamate of acetyl coenzyme A formed after 30 min at 37° C. Mitochondrial citrate exchange was determined by the procedure of Robinson et al [Eur. J. Biochem., 216, 63 (1970)] using ^14 C-sodium bicarbonate (41 mCi/mmol) incorporated into mitochondrial ^14 C-citrate after isolating rat mitochondria (9000 g×10 min) from the homogenates. The exchanges of the ^14 C-citrate were determined after incubating the mitochondrial fraction which was loaded with labeled citrate and test drugs for 10 min. Then the radioactivity was measured in the mitochondrial and supernantant fractions in scintillation fluid and expressed as a percentage. Cholesterol side chain oxidation was determined by the method of Kritchevsky and Tepper [Artherosclerosis, 18, 93 (1973)] using (26-^14 C) cholesterol (50 mCi/mmol) and mitochondria isolated from rat liver homogenates. […] Fatty acid synthetase activity was determined by the method of Brady et al [J. Biol. Chem., 235, 3093 (1960)] using [2-^14 C] malonyl-coenzyme A (37.5 mCi/mmol) which was incorporated into newly synthesized fatty acids that were extracted with ether and counted. Acyl transferase activity was determined with glycerol-3phosphate [L-2-^3 H(N)] […] HCl and counted. Phosphatidate phosphohydrolase activity was measured as the inorganic phosphate released after 30 min from phosphatidic acid by the method of Mavis et al [J. Lipid Res., 19, 467 (1978)]. […]

[4] = test system: Ehrlich ascites lysate protein synthesis; assay: Initiation/elongation of Ehrlich ascites lysate protein synthesis; assay type: biochemical, mouse; details: compared with pyrocatechol violet and emetine
Description: An in vitro method was used to determine if compound I was an initiation or an elongation inhibitor of Ehrlich ascites lysate protein synthesis by comparing inhibition with known standards, pyrocateochol violet and emetine, using 1 μCi ^3 H-leucine (24.7 Ci/mmol). The reaction medium was spotted on Whatman #1 filter paper disks, which after drying were treated for 10 min in boiling 5% trichloroacetic acid, for 10 min in cold 5% trichloroacetic acid and washed with cold 5% trichloroacetic acid, ether/ethanol (4:1) and ether. The disks were dried and counted.

[5] = 10 mg/kg/day I.P. on Days 8 and 9

T1 sequence (P52432 whole entry): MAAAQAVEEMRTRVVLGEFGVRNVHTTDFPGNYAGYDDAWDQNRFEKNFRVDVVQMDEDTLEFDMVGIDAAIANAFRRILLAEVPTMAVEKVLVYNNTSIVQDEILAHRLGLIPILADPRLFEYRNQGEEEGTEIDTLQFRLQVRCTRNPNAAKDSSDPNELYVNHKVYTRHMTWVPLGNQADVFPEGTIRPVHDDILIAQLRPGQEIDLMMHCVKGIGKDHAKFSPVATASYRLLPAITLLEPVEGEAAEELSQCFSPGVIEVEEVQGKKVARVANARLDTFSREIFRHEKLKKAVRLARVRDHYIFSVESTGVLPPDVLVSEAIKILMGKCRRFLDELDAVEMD
T1 sequence (Q791N7 whole entry, further chain): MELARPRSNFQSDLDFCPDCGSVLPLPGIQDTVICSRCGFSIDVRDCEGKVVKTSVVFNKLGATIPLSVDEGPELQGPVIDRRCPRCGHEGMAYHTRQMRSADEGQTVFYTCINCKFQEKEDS
T1 sequence (P97304 whole entry, further chain): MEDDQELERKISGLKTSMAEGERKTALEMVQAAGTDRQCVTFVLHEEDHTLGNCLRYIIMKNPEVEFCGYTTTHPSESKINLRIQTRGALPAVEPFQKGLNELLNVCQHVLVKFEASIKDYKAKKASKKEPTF
T1 sequence (Q78WZ7 whole entry, further chain): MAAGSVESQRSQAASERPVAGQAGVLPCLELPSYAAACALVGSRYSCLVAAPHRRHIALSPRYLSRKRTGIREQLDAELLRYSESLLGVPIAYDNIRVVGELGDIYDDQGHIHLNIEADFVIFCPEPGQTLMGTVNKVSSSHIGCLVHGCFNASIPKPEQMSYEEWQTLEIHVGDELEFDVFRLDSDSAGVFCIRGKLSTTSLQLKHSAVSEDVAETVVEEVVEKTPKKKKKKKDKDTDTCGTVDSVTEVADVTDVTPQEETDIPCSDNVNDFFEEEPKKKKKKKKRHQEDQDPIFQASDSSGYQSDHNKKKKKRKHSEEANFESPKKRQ
T1 sequence (P70700 whole entry): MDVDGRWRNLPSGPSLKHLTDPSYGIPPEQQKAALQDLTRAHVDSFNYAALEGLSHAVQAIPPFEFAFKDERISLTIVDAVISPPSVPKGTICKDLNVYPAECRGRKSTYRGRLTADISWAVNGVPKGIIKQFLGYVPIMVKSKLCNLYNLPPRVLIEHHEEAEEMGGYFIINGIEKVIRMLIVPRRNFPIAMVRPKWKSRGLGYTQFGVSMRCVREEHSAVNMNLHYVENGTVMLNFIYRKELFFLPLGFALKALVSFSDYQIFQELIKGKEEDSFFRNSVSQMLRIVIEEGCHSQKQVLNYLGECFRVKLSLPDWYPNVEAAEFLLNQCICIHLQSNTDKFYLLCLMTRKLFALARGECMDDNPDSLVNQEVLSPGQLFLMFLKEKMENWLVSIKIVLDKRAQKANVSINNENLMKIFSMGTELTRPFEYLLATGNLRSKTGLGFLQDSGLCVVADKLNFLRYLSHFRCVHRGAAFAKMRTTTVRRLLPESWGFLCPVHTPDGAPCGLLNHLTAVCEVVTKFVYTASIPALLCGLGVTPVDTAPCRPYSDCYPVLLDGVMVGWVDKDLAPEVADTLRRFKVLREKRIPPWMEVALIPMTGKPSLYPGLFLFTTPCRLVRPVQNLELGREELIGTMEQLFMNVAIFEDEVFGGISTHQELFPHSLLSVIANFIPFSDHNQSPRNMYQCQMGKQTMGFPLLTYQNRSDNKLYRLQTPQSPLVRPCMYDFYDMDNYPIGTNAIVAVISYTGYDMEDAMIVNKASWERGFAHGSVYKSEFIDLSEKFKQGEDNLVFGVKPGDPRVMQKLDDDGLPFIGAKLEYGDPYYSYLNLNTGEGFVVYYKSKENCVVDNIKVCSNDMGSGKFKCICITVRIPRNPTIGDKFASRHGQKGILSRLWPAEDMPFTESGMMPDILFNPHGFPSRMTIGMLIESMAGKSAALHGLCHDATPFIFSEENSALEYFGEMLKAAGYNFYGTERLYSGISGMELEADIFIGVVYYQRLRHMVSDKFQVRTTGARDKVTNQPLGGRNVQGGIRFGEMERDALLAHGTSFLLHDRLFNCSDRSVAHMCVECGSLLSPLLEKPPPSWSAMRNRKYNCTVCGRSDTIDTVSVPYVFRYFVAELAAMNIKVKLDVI
T1 sequence (O35134 whole entry): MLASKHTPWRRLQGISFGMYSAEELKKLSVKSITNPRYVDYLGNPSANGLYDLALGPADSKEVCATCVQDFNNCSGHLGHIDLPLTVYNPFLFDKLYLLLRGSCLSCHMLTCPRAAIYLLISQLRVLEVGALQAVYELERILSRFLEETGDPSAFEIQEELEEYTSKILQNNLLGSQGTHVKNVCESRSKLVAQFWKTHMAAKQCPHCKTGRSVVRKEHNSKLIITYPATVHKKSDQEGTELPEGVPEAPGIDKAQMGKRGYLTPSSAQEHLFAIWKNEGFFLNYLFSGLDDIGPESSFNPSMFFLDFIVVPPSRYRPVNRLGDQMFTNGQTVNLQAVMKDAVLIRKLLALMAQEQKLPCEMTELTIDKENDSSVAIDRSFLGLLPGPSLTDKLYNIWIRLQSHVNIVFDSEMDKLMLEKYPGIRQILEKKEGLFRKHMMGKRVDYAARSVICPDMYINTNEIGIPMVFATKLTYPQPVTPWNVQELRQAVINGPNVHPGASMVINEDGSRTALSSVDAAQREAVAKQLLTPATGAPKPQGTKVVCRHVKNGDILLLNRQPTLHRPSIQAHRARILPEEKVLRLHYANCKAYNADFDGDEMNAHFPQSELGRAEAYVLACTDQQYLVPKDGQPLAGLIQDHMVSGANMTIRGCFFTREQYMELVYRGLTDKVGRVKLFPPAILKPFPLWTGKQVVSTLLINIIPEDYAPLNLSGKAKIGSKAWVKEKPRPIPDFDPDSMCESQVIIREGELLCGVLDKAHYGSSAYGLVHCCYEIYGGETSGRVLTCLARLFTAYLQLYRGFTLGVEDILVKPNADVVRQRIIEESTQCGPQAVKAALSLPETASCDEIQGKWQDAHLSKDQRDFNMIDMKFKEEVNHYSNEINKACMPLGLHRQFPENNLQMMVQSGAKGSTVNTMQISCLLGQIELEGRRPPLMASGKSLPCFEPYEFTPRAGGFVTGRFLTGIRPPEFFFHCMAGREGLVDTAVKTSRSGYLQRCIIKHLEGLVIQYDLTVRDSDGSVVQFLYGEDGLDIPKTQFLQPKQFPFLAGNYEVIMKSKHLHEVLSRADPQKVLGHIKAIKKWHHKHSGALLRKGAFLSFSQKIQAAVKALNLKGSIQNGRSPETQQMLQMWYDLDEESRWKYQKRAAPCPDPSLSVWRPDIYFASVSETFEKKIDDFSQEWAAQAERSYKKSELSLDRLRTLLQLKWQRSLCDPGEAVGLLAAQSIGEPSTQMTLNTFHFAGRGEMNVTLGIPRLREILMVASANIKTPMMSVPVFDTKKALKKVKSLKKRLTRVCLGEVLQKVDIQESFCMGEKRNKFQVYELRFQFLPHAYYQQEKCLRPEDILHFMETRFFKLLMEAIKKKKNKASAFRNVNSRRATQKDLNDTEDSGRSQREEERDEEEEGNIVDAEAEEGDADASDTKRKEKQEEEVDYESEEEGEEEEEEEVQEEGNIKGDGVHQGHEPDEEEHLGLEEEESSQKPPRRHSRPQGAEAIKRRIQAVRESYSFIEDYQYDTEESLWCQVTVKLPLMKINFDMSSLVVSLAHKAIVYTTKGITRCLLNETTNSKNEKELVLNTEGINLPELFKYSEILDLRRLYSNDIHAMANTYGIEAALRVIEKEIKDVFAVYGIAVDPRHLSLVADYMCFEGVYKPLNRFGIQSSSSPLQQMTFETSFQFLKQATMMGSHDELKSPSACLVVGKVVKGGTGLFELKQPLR

{Cu[(CH3)3 N.BH2 CO2 ]2.(CH3)3 N.BH2 COOH} [Compound I]
ribosomal ribonucleic acid polymerase activity [1]: not affected | Ribosmoal ribonucleic acid polymerase activity [1, 5]: 96 ± 11 % Control | 3H-Leucine incorporation into protein [2, 5]: 48 ± 6 % Control | Leucine incorporation into protein inhibited ([2]; 10 day Ehrlich ascites cells): 52% | Phosphatidate Phosphohydrolase ([3]; 50 μM): 77 ± 5 Percent Control | Phosphatidate Phosphohydrolase ([3]; 100 μM): 63 ± 6 Percent Control | Phosphatidate Phosphohydrolase ([3]; 200 μM): 35 ± 3 Percent Control | inhibition of protein synthesis of Ehrlich ascites lysates (initiation vs elongation) [4]: lag of several minutes before inhibition is observed
